Experimental data from ChEMBL document CHEMBL1201862, “PubChem BioAssay data set” (2004).
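Five concentrations, 48 hours, 96-well plates. GI50: concentration for 50% inhibition of growth.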 Calls of active or inactive are those of the source. Cut-off read from the data, not from the text of the source: active = GI50 up to about 1.1 µM and inactive = higher.

Key:
Test in all cases: DTP human tumour cell line panel, 48 h
DMS-273 = test system: DMS-273
Malme-3M = test system: Malme-3M
K562 = test system: K562
HCC 2998 = test system: HCC 2998
A498 = test system: A498
HCT-15 = test system: HCT-15
OVCAR-5 = test system: OVCAR-5
CAKI-1 = test system: CAKI-1
SF-268 = test system: SF-268
SK-OV-3 = test system: SK-OV-3
786-0 = test system: 786-0
NCI-H23 = test system: NCI-H23
SF-295 = test system: SF-295
U-251 = test system: U-251
LXFL 529 = test system: LXFL 529
RXF 393 = test system: RXF 393
SF-539 = test system: SF-539
RPMI-8226 = test system: RPMI-8226
COLO 205 = test system: COLO 205
RXF 631 = test system: RXF 631
A549 = test system: A549
OVCAR-8 = test system: OVCAR-8
SR = test system: SR
LOX IMVI = test system: LOX IMVI
SK-MEL-2 = test system: SK-MEL-2
M19-MEL = test system: M19-MEL
SN12C = test system: SN12C
NCI-H522 = test system: NCI-H522
HOP-92 = test system: HOP-92
HL-60 = test system: HL-60
SK-MEL-5 = test system: SK-MEL-5
DMS-114 = test system: DMS-114
ACHN = test system: ACHN
SK-MEL-28 = test system: SK-MEL-28
MOLT-4 = test system: MOLT-4
HT-29 = test system: HT-29
CCRF-CEM = test system: CCRF-CEM
HOP-62 = test system: HOP-62
UACC-62 = test system: UACC-62
TK-10 = test system: TK-10
HCT-116 = test system: HCT-116
KM12 = test system: KM12
NCI-H226 = test system: NCI-H226
SNB-75 = test system: SNB-75
OVCAR-3 = test system: OVCAR-3
UO-31 = test system: UO-31
HOP-18 = test system: HOP-18
KM-20L2 = test system: KM-20L2
OVCAR-4 = test system: OVCAR-4
EKVX = test system: EKVX
NCI-H460 = test system: NCI-H460
UACC-257 = test system: UACC-257
M14 = test system: M14
IGROV-1 = test system: IGROV-1
SNB-19 = test system: SNB-19
SNB-78 = test system: SNB-78
DLD-1 = test system: DLD-1
XF498 = test system: XF498

For `O=[N+]([O-])c1ccc(COc2cccc3cccnc23)cc1`, the GI50 (DMS-273) was 4.53 µM (inactive), the GI50 (Malme-3M) was 33 µM (inactive) and the GI50 (K562) was 11.3 µM (inactive). The GI50 (HCC 2998) was 22.3 µM (inactive), the GI50 (A498) was 34.8 µM (inactive) and the GI50 (HCT-15) was 7.1 µM. The GI50 (OVCAR-5) was 38.5 µM (inactive), the GI50 (CAKI-1) was 30.3 µM (inactive) and the GI50 (SF-268) was 19.9 µM (inactive). The GI50 (SK-OV-3) was 32.3 µM (inactive), the GI50 (786-0) was 17.2 µM (inactive) and the GI50 (NCI-H23) was 20 µM (inactive). For the same compound, the GI50 (SF-295) was 26.6 µM (inactive), the GI50 (U-251) was 10 µM (inactive) and the GI50 (LXFL 529) was 23.5 µM (inactive). For the same compound, the GI50 (RXF 393) was 43.5 µM (inactive), the GI50 (SF-539) was 29.6 µM (inactive) and the GI50 (RPMI-8226) was 13 µM (inactive). For the same compound, the GI50 (COLO 205) was 17.2 µM (inactive), the GI50 (RXF 631) was 13.9 µM (inactive) and the GI50 (A549) was 31 µM (inactive). The GI50 (OVCAR-8) was 20.5 µM (inactive), the GI50 (SR) was 3.47 µM (inactive) and the GI50 (LOX IMVI) was 11.7 µM (inactive). The GI50 (SK-MEL-2) was 14.6 µM (inactive), the GI50 (M19-MEL) was 15.1 µM (inactive) and the GI50 (SN12C) was 22.6 µM (inactive). For the same compound, the GI50 (NCI-H522) was 4.53 µM (inactive), the GI50 (HOP-92) was 31 µM (inactive) and the GI50 (HL-60) was 5.69 µM (inactive). For the same compound, the GI50 (SK-MEL-5) was 17.1 µM (inactive), the GI50 (DMS-114) was 2.19 µM (inactive) and the GI50 (ACHN) was 19.6 µM (inactive). The GI50 (SK-MEL-28) was 14.8 µM (inactive), the GI50 (MOLT-4) was 4.98 µM (inactive) and the GI50 (HT-29) was 31.6 µM (inactive). For the same compound, the GI50 (CCRF-CEM) was 3.94 µM (inactive), the GI50 (HOP-62) was 30 µM (inactive) and the GI50 (UACC-62) was 17.3 µM (inactive). The GI50 (TK-10) was 15.8 µM (inactive), the GI50 (HCT-116) was 25.2 µM (inactive) and the GI50 (KM12) was 23.8 µM (inactive). For the same compound, the GI50 (NCI-H226) was 18.7 µM (inactive), the GI50 (SNB-75) was 26.9 µM (inactive) and the GI50 (OVCAR-3) was 5.94 µM (inactive). The GI50 (UO-31) was 10.1 µM (inactive), the GI50 (HOP-18) was 31.5 µM (inactive) and the GI50 (KM-20L2) was 33.3 µM (inactive). For the same compound, the GI50 (OVCAR-4) was 12.4 µM (inactive), the GI50 (EKVX) was 18.9 µM (inactive) and the GI50 (NCI-H460) was 1.23 µM (inactive). The GI50 (UACC-257) was 20.2 µM (inactive), the GI50 (M14) was 10.6 µM (inactive) and the GI50 (IGROV-1) was 22.5 µM (inactive). For the same compound, the GI50 (SNB-19) was 27.4 µM (inactive), the GI50 (SNB-78) was 38.2 µM (inactive) and the GI50 (DLD-1) was 13.9 µM (inactive). The GI50 (XF498) was 19.9 µM (inactive).
